{"source": "patent US20040132803A1", "about": "“Agent for the treatment of overactive bladder” (priority 2003, published 2004)", "system": "dd male mice", "details": "mouse, in vivo, po, 7 days", "procedure": "The test compound was administered orally or intraperitoneally to 3 animals per group of dd male mice (body weight, 20±1 g). Minimum lethal dose (MLD) value was obtained by observing mortality on the 7th day after the administration.", "data": [{"smiles": "C[C@](O)(C(=O)Nc1cccc2c1C(=O)c1sccc1CS2(=O)=O)C(F)(F)F", "note": "[Compound 1, (S)-(+)-N-(5,5-dioxido-10-oxo-4,10-dihydrothieno[3,2-c][l]benzothiepin-9-yl)-3,3,3-trifluoro-2-hydroxy-2-methylpropanamide]", "values": [{"measurement": "Minimum lethal dose (MLD)", "result": "> 1,000 mg/kg"}]}]}
